Measured values taken from patent US7968525B1, “Use of RNA interference to validate new termiticide target sites and a method of termite control” (University of Florida Research Foundation, Inc., priority 2007, dated 2011).

How the values were obtained:
exoglucanases = settings: in vitro enzyme assays, earlier work; cited from earlier work
beta glucosidase = settings: in vitro enzyme assays, earlier work; cited from earlier work
termite = settings: bioassays, earlier work; cited from earlier work
R. flavipes workers [1] = assay: Hex-2 dsRNA feeding bioassay with and without JH (morphology, lethal molts); format: in vivo, Reticulitermes flavipes; settings: feeding on Hex-2 dsRNA alone or JH alone
Procedure: dsRNA Feeding bioassays. dsRNA-mediated gene silencing was accomplished using voluntary feeding bioassays. Termites were pre-starved for 12 h to standardize their hunger status before the assay. The bioassay was run by placing groups of 15 worker termites into 35-mm tissue culture dishes that contained 18 mm diam. treated paper towel disks. Multiple and single dose dsRNA regimes were tested. All assays were carried out for 24-d. Paper disk moisture was monitored every other day. Every 8th day, old paper disks were replaced with new ones. These new paper disks were treated exactly the same as previous ones. Feeding (mg/dish) was determined by comparing weights of paper disks before and after confinement with termites, whereas body weight (mg/termite) was measured by comparing termite weights before and after 8-day paper consumption and then by correcting for the number of live termites at the time of sampling. Paper disks were dried in a drying oven before weighing. Mortality, paper consumption, body weight change, and/or presoldier formation were documented every 8th day. The complete experimental design included two colonies (Colony-1 and -2), with three replicate dishes per treatment per colony.
For Cell-1 dsRNA feeding bioassays, the experimental design included two treatments (triple and single dose Cell-1 dsRNA) and a control (3 doses of dsRNA buffer; Ambion; Austin, Tex.). […]

R. flavipes workers [2] = assay: dsRNA + JH III feeding assay, lethal times by probit analysis; format: in vivo, Reticulitermes flavipes; settings: JH III alone
Procedure: Six additional developmental genes were targeted by combined dsRNA+JH III treatments: broad, farnesoic acid methyl transferase (FAMET-2), two family 15 cytochrome P450s (Cyp15-1, Cyp15-2), and two vitellogenin genes (Vit-1, Vit-2). dsRNAs corresponding to internal 500 base pair fragments of all six genes (see FIG. 22) were prepared as described under “description of the preferred embodiment”. Twenty μg of dsRNA was applied in 50 μL nanopure water to a penny-sized ([…]) paper disk. The disk was placed in a 5 cm tissue culture dish and 15 worker termites were added. Assays ran for 25 days at 60% relative humidity and 27 degrees C., with water being replenished and mortality/presoldier formation scored every 5th day.
LT50 and LT90 were determined from time-mortality data using probit analysis (SAS software; Cary, N.C.). In this context, the terms LT50 and LT90 refer to the estimated times at which 50% and 90% mortality occurs in response to the various RNAi treatments relative to JH III treatments alone (FIG. 23). Applying the six dsRNAs alone had no significant effects on survivorship. The LT50 and LT90 values for JH III alone were 34.5 and 65.7 days, respectively (as a result of fitness costs from elevated presoldier levels).

Molecule | inhibition of exoglucanases activity (exoglucanases) | inhibition of beta glucosidase activity (beta glucosidase) | termite mortality (termite) | caste phenotype induced (R. flavipes workers [1]) | LT50 (R. flavipes workers [2]; time to 50% mortality) [days] | LT90 (R. flavipes workers [2]; time to 90% mortality) [days]
OC[C@@H]1[C@@H](O[C@@H]2O[C@H](CO)[C@@H](O)[C@H](O)[C@H]2O)[C@H](O)[C@@H](O)c2nccn21 [CBI, cellobioimidazole] | Good to excellent inhibition | Good to excellent inhibition | only moderate termite mortality | – | – | –
COC(=O)/C=C(\C)CC/C=C(\C)CC[C@H]1OC1(C)C [JH III, juvenile hormone III] | – | – | – | wildtype caste phenotypes | 34.5 | 65.7
fluromethyl cellobiose [FMCB] | Good to excellent inhibition | Good to excellent inhibition | only moderate termite mortality | – | – | –
